According to patent publication US9018187B2, “Cationic lipids and methods for the delivery of therapeutic agents” (Protiva Biotherapeutics, Inc., priority 2009, dated 2015):
Entries after “also recorded” stand apart in the source; their conditions may differ.

Key:
[1] = test system: liver ApoB mRNA; experiment: Liver ApoB mRNA knockdown by 1:57 SNALP with APOB siRNA in mice; assay type: in vivo, mouse; settings: 1:57 SNALP, 6:1 L:D, IV 0.1 mg/kg, female Balb/c mice, 48 hours
Method: Each SNALP formulation was administered by intravenous (IV) injection at 0.1 mg/kg into female Balb/c mice (n=3 per group). Plasma total cholesterol and/or liver ApoB mRNA levels were evaluated at 48 hours after SNALP administration. For dose response studies, SNALP formulations were administered by IV injection at 0.01 mg/kg, 0.03 mg/kg, or 0.1 mg/kg into female Balb/c mice (n=3 per group). Liver ApoB mRNA levels were evaluated at 48 hours after SNALP administration.
1:57 SNALP formulations containing encapsulated APOB siRNA at a 6:1 lipid:drug (L:D) ratio were prepared with the following cationic lipids: (1) DLinDMA; (2) Linoleyl/Linolenyl DMA (“Lin/LenDMA”); (3) DPanDMA; (4) TLinDMA; (5) Linoleyl/C6:0 DMA (“Lin/6:0”); (6) C2-DPanDMA; (7) DLin-C2K-Pip (30H); and (8) DHep-C2K-DMA.
(§1) Each SNALP formulation was administered by intravenous (IV) injection at 0.1 mg/kg into female Balb/c mice (n=3 per group). Livers were colleted at 48 hours after SNALP administration and liver ApoB mRNA levels were evaluated by performing an ApoB/GAPDH QG assay. Table 2 provides a characterization of the SNALP formulations used in this in vivo study.
In another study, 1:57 SNALP formulations containing encapsulated APOB siRNA at a 6:1 L:D ratio were prepared with the following cationic lipids: (1) DLinDMA; (2) C2-DPanDMA; (3) DPan-C2K-DMA; (4) DPan-C3K-DMA; and (5) DPan-C1K6-DMA.
as §1, with “3” for “2”
For dose response studies, SNALP formulations were administered by IV injection at 0.01 mg/kg, 0.033 mg/kg, or 0.1 mg/kg into female Balb/c mice (n=3 per group). Liver ApoB mRNA levels were evaluated at 48 hours after SNALP administration by a branched DNA assay (QuantiGene assay) to assess ApoB mRNA relative to the housekeeping gene GAPDH.

[2] = Characterization of SNALP formulations (size, polydispersity, encapsulation); assay type: physicochemical; settings: Table 5; for Initial Encaps. (%): 7:54 SNALP (PEG750-C-DMA 6.76 | cationic 54.06 | Chol 32.43 | DPPC 6.75 mol %) with PLK-1 siRNA; for Finished Product Encaps. (%) / Finished Product Poly / Finished Product Z-Avg (nm): 7:54 SNALP with PLK-1 siRNA
Method: In the context of nucleic acids, full encapsulation may be determined by performing a membrane-impermeable fluorescent dye exclusion assay, which uses a dye that has enhanced fluorescence when associated with nucleic acid. Specific dyes such as OliGreen® and RiboGreen® (Invitrogen Corp.; Carlsbad, Calif.) are available for the quantitative determination of plasmid DNA, single-stranded deoxyribonucleotides, and/or single- or double-stranded ribonucleotides. Encapsulation is determined by adding the dye to a liposomal formulation, measuring the resulting fluorescence, and comparing it to the fluorescence observed upon addition of a small amount of nonionic detergent. Detergent-mediated disruption of the liposomal bilayer releases the encapsulated nucleic acid, allowing it to interact with the membrane-impermeable dye. Nucleic acid encapsulation may be calculated as E=(Io−I)Io, where I and Io refer to the fluorescence intensities before and after the addition of detergent (see, Wheeler et al., Gene Ther., 6:271-281 (1999)). […]
(§2) Each SNALP formulation was administered by intravenous (IV) injection at 3 mg/kg into Scid mice containing Hep3B tumors (n=4 per group). Tumor tissue was colleted at 24 hours after SNALP administration and tumor PLK-1 mRNA levels were evaluated by performing a PLK-1/GAPDH QG assay. Table 5 provides a characterization of the SNALP formulations used in this in vivo study.

[3] = test system: tumor PLK-1 mRNA; experiment: Tumor PLK-1 mRNA knockdown by 7:54 SNALP in Scid mice containing Hep3B tumors; assay type: in vivo, mouse; settings: FIG. 11, 7:54 SNALP with PLK-1 siRNA, IV 3 mg/kg, 24 hours, PLK-1/GAPDH QG assay
Method: 7:54 SNALP formulations containing encapsulated PLK-1 siRNA were prepared with the following cationic lipids: (1) DLinDMA; (2) TLinDMA; (3) DLin-C1K-DMA (“DLin-K-DMA”); (4) DPanDMA; (5) DPan-C2-DMA (“C2-DPanDMA”); (6) DPan-C2K-DMA; (7) DPan-C3K-DMA; and (8) DPan-C1K6-DMA.
as §2

[4] = TNS assay, apparent pKa of cationic lipid in 1:57 SNALP; settings: 1:57 SNALP formulation containing encapsulated APOB siRNA
Method: 1:57 SNALP formulations containing encapsulated APOB siRNA were prepared as described in Section VI above with the following cationic lipids: (1) DLinDMA; (2) DLenDMA; (3) γ-DLenDMA (“g-DLenDMA”); (4) C2-DLinDAP; (5) DLinPip (4-OH); (6) DLinPip; (7) DLinPip (3-OH); (8) DLinDEA; (9) DDocDMA; (10) DAraDMA; (11) TLinDMA; (12) DLin-C2K Pip (30H); (13) DHep-C2K-DMA; (14) DPanDMA; (15) C2-DPanDMA (“DPan-C2-DMA”); (16) DPan-C2K-DMA; (17) DPan-C3K-DMA; (18) DPan-K6-DMA (“DPan-C1K6-DMA”); and (19) C2-TLinDMA.
The apparent pKa of the cationic lipids present in these SNALP formulations was determined using a 2-(p-toluidinyl)-naphthalene-6-sodium sulfonate (TNS) assay. TNS is a negatively-charged indicator of membrane potential that is electrostatically attracted to positively charged membranes (see, Bailey and Cullis, Biochemistry, 33 12573-80 (1994)). Subsequent adsorption to the lipid membrane results in the immediate environment of the TNS becoming more lipophilic, removing the water molecules that otherwise quench TNS fluorescence. As a result, TNS measures the surface potential of the particle, wherein the more positive the surface potential, the greater the level of fluorescence. The surface pKa values of each SNALP formulation were determined by varying the local pH in the presence of TNS. By plotting fluorescence versus pH, the pKa of the cationic lipid can be estimated in the particle as the pH where fluorescence equals 50% of total fluorescence.

Row | Initial Encaps. (%) [2] | Finished Product Encaps. (%) [2] | Finished Product Poly [2] | Finished Product Z-Avg (nm) [2] | pKa [4] | Structure (SMILES) | ApoB silencing activity (liver ApoB mRNA) ([1]; Example 16, FIG. 8, ApoB/GAPDH QG assay) | ApoB silencing activity (liver ApoB mRNA) ([1]; Example 16 second study, FIG. 9, 0.1 mg/kg) | tumor PLK-1 mRNA silencing activity [3]
1 | 86% | 100% | 0.06 | 81 nm | ~6.1 | CC(C)CCCC(C)CCCC(C)CCCC(C)CCOCC(CCN(C)C)OCCC(C)CCCC(C)CCCC(C)CCCC(C)C (centres unmarked) [Compound C2-DPanDMA, 1,2-Diphytanyloxy-(N,N-dimethyl)-butyl-4-amine] | more potent compared to DLinDMA and substantially more potent compared to DPanDMA | more potent compared to DLinDMA; also recorded: greatest activity of all the phytanyl-containing cationic lipids tested | no difference in silencing activity
2 | 75% | 100% | 0.08 | 76 nm | 5.5 | CC(C)CCCC(C)CCCC(C)CCCC(C)CCOCC(CN(C)C)OCCC(C)CCCC(C)CCCC(C)CCCC(C)C (centres unmarked) [DPanDMA, 1,2-Diphytanyloxy-3-(N,N-dimethyl)-propylamine] | – | – | no difference in silencing activity
